Source: patent US10787441B2, “Hepatitis C virus inhibitors” (priority 2016, dated 2020)

Columns and labels:
Format in all cases: cell-based, Hepatitis C virus
[1] = system: HCV genotype 1a H77 strain subgenomic luciferase replicon; test: HCV replicon assay, genotype 1a; conditions: Hepatitis C virus, read-out: 1a IC50 (nM), HCV genotype 1a
Description: (§1) The HCV luciferase replicon assay measures the ability of a test compound to inhibit HCV replication in cell culture after 3 days of treatment in a human hepatoma cell line (Huh-7) bearing an HCV replicon containing a luciferase-neomycin phosphotransferase fusion gene. The inhibition of HCV replication was measured by quantification of luciferase protein expression. Briefly, Huh-7 cells containing either the HCV genotype 1a H77 strain or genotype 1b Con1 strain subgenomic luciferase replicon (H1a-luc or Zluc, respectively) were grown in DMEM containing glucose, L-glutamine and sodium pyruvate, 10% fetal bovine serum (FBS), 100 IU/mL penicillin, 100 μg/mL streptomycin, 2 mM GlutaMAX, non-essential amino acids and 0.25 (H1a-luc) or 0.5 (Zluc) mg/mL G418. GlutaMAX was obtained from Invitrogen, Corp.; all other media reagents were obtained from Mediatech, Inc. For dose-response testing, the cells were seeded in 96-well plates at 1×10^4 (H1a-luc) or 7.5×10^3 (Zluc) cells/well in a volume of 50 μL, and incubated at 37° C./5% CO2. Three hours after plating, 50 μL of ten 5-fold serial dilutions of compound were added, and cell cultures were incubated at 37° C./5% CO2 for 72 hours. In all cases, Huh-7 cells lacking the HCV replicon served as negative control. To assess luciferase expression, the media/compound was removed from the plates and ONE-glo Luciferase assay reagent (Promega) was added to each well. The assay plates were shaken for 3 minutes at room temperature and luciferase activity for each well was measured with a 1 sec read time on the Victor^3V multilabel counter using a 700 nm cut-off filter (Perkin Elmer). EC50 values were calculated from dose response curves from the resulting best-fit equations determined by Microsoft Excel and XLfit 4.1 software.

[2] = system: HCV 1aY93H mutant replicon; test: HCV replicon assay, genotype 1a Y93H mutant; conditions: Hepatitis C virus, read-out: 1aY93H IC50 (nM), HCV genotype 1a, Y93H mutant
Description: General procedure: The luciferase replicon transient transfection assay measures the ability of a test compound to inhibit the replication of a transiently-transfected HCV luciferase-bearing wild-type or mutant replicon in cured human hepatoma cells (Huh7.5). The inhibition of HCV replication was measured by quantification of luciferase protein expression. This assay has been validated using a panel of genotype 1a and 1b replicons bearing mutations known to be associated with resistance to BMS-790052. Briefly, subconfluent Huh7.5 cells were electroporated with 10 μg of wild-type or mutant luciferase-bearing HCV replicon RNA. The cells were then seeded in 96-well opaque white plates at 3×10^4 cells/well in 150 μL/well and incubated for 4 hrs at 37° C./5% CO2. Ten 1:5 serial dilutions of each test compound were made in media (DMEM containing glucose, L-glutamine and sodium pyruvate, 10% fetal bovine serum, 100 IU/mL penicillin, 100 μg/mL streptomycin, 2 mM GlutaMAX, and 1×MEM non-essential amino acids (Mediatech, Inc. and Invitrogen Corp.)) at concentrations that were 4× higher than the final concentrations to be tested and 50 μL/well was added to the transfected cells. Untreated, mock-transfected cells served as a negative control of luciferase expression. The plates were incubated at 37° C./5% CO2 for 4 days whereupon the media was removed and 50 μL of ONE-glo luciferase substrate (Promega) was added to each well. The plates were agitated on a rotating platform at room temperature for 3 min and read in a Victor^3V microplate reader (Perkin-Elmer) using a 700 nm cut-off filter with a 1 sec read time. EC50 values were calculated from dose response curves from the resulting best-fit equations determined by Microsoft Excel and XLfit 4.1 software.

[3] = system: HCV genotype 1b Con1 strain subgenomic luciferase replicon; test: HCV replicon assay, genotype 1b; conditions: Hepatitis C virus
Description: as §1

HCV 2b = test: HCV replicon assay, genotype 2b; conditions: Hepatitis C virus, read-out: 2b IC50 (nM), HCV genotype 2b
[4] = system: HCV genotype 3a NS5A within the 1b-replicon; test: HCV replicon assay, genotype 3a (NS5A intergenotypic stable cell line); conditions: Hepatitis C virus, read-out: 3a IC50 (nM), HCV genotype 3a
Text: The nucleotide sequences of the NS5A region of genotype 2a (GenBank Accession # AB047639), genotype 3a (GenBank Accession # D17763), and genotype 4a (GenBank Accession # DQ418788) were synthesized by an outside vendor. The NS5A region of each of these genotypes included the first 11 amino acids of the protease recognition sequence of genotype 1b, as well as the last 10 amino acids of genotype 1b. The NS5A gene cassettes were excised with site specific restriction endonucleases and ligated into a ZS11-luciferase genotype 1b backbone (backbone contains the genotype 1b NS3 protease, NS4a, NS4b, and NS5b coding regions) with similarly cut restriction enzyme sites. Thus, the newly constructed plasmid contains a genotype 2a-, 3a- or 4a-specific NS5A gene within the 1b-replicon.
These new intergenotypic plasmids were used to establish stable cell lines. RNA was generated from the NS5A intergenotypic plasmids and used in conjunction with a lipofectin reagent to transfect a cured Huh7 cell line. Transfected cells were selected for with G418. After selection has occurred the stable cell lines were propagated, tested for luciferase activity, and RT-PCR with genotype specific primers (either 1a, 2a, 3a, or 4a). Stable cell lines containing the intergenotypic replicon were then fully sequenced and analyzed for proper expression of NS3, NS5A and NS5B proteins.
Drug titration analysis was performed using the luciferase replicon assay described herein.
as §1

`CCC1(CC)c2ccc(-c3cnc([C@@H]4CCCN4C(=O)[C@H](NC(=O)OC)C4CCOCC4)[nH]3)cc2Oc2cc3ccc(-c4cnc([C@@H]5CCCN5C(=O)[C@@H](NC(=O)OC)C5CCOCC5)[nH]4)cc3cc21` [Compound 17, methyl [(1R)-2-[(2S)-2-{5-[12,12-diethyl-9-(2-{(2S)-1-[(2S)-2-[(methoxycarbonyl)amino]-2-(tetrahydro-2H-pyran-4-yl)acetyl]pyrrolidin-2-yl}-1H-imidazol-5-yl)-12H-benzo[b]xanthen-3-yl]-1H-imidazol-2-yl}pyrrolidin-1-yl]-2-oxo-1-(tetrahydro-2H-pyran-4-yl)ethyl]carbamate] showed an IC50 [1] of 0.0034 nM, an IC50 [2] of 0.046 nM and an IC50 [3] of 0.0305 nM. It also gave an IC50 (HCV 2b) of 0.028 nM and an IC50 [4] of 0.055 nM.
For `COC(=O)N[C@H](C(=O)N1CCC[C@H]1c1ncc(-c2ccc3c(ccc4oc5ccc(-c6cnc([C@@H]7CCCN7C(=O)[C@@H](NC(=O)OC)C(C)C)[nH]6)cc5c(=O)c43)c2)[nH]1)C(C)C` [Compound 25, methyl [(1S)-1-({(2S)-2-[5-(10-{2-[(2S)-1-{(2S)-2-[(methoxycarbonyl)amino]-3-methylbutanoyl}pyrrolidin-2-yl]-1H-imidazol-5-yl}-12-oxo-12H-benzo[a]xanthen-3-yl)-1H-imidazol-2-yl]pyrrolidin-1-yl}carbonyl)-2-methylpropyl]carbamate], the IC50 [1] was 0.167 nM, the IC50 [2] was ≥ 100 nM and the IC50 [3] was 0.107 nM. The IC50 (HCV 2b) was ≥ 100 nM and the IC50 [4] was ≥ 1 nM.
In the case of `COC(=O)N[C@H](C(=O)N1CCC[C@H]1c1ncc(-c2ccc3c(F)c4oc5ccc(-c6cnc([C@@H]7CCCN7C(=O)[C@@H](NC(=O)OC)C(C)C)[nH]6)cc5c(=O)c4cc3c2)[nH]1)C(C)C` [Compound 26, methyl [(1S)-1-({(2S)-2-[5-(6-fluoro-9-{2-[(2S)-1-{(2S)-2-[(methoxycarbonyl)amino]-3-methylbutanoyl}pyrrolidin-2-yl]-1H-imidazol-5-yl}-12-oxo-12H-benzo[b]xanthen-2-yl)-1H-imidazol-2-yl]pyrrolidin-1-yl}carbonyl)-2-methylpropyl]carbamate], the IC50 [1] is reported as ≥ 1 nM, the IC50 [2] is reported as ≥ 100 nM and the IC50 [3] is reported as 1 nM. The IC50 (HCV 2b) was ≥ 100 nM and the IC50 [4] was ≥ 1 nM.
In the case of `COC(=O)N[C@H](C(=O)N1C[C@H](F)C[C@H]1c1ncc(-c2ccc3c(ccc4oc5ccc(-c6cnc([C@@H]7C[C@@H](F)CN7C(=O)[C@@H](NC(=O)OC)C(C)C)[nH]6)cc5c(=O)c43)c2)[nH]1)C(C)C` [Compound 27, methyl [(1S)-1-({(2S,4R)-4-fluoro-2-[5-(10-{2-[(2S,4R)-4-fluoro-1-{(2S)-2-[(methoxycarbonyl)amino]-3-methylbutanoyl}pyrrolidin-2-yl]-1H-imidazol-5-yl}-12-oxo-12H-benzo[a]xanthen-3-yl)-1H-imidazol-2-yl]pyrrolidin-1-yl}carbonyl)-2-methylpropyl]carbamate], the IC50 [1] is reported as ≥ 1 nM, the IC50 [2] is reported as 96.6 nM and the IC50 [3] is reported as 0.591 nM. For the same compound, the IC50 (HCV 2b) was ≥ 100 nM and the IC50 [4] was ≥ 1 nM.
Compound `COC(=O)N[C@H](C(=O)N1C[C@H](F)C[C@H]1c1ncc(-c2ccc3c(ccc4oc5cc(-c6cnc([C@@H]7C[C@@H](F)CN7C(=O)[C@@H](NC(=O)OC)C(C)C)[nH]6)ccc5c(=O)c43)c2)[nH]1)C(C)C` [Compound 28, methyl [(1S)-1-({(2S,4R)-4-fluoro-2-[5-(9-{2-[(2S,4R)-4-fluoro-1-{(2S)-2-[(methoxycarbonyl)amino]-3-methylbutanoyl}pyrrolidin-2-yl]-1H-imidazol-5-yl}-12-oxo-12H-benzo[a]xanthen-3-yl)-1H-imidazol-2-yl]pyrrolidin-1-yl}carbonyl)-2-methylpropyl]carbamate] has an IC50 [1] of 0.0292 nM, an IC50 [2] of 1.18 nM and an IC50 [3] of 0.00445 nM. The IC50 (HCV 2b) was 89.8 nM and the IC50 [4] was ≥ 1 nM.
`COC(=O)N[C@H](C(=O)N1C[C@H](F)C[C@H]1c1ncc(-c2ccc3c(F)c4oc5ccc(-c6cnc([C@@H]7C[C@@H](F)CN7C(=O)[C@@H](NC(=O)OC)C(C)C)[nH]6)cc5c(=O)c4cc3c2)[nH]1)C(C)C` [Compound 29, methyl [(1S)-1-({(2S,4R)-4-fluoro-2-[5-(6-fluoro-9-{2-[(2S,4R)-4-fluoro-1-{(2S)-2-[(methoxycarbonyl)amino]-3-methylbutanoyl}pyrrolidin-2-yl]-1H-imidazol-5-yl}-12-oxo-12H-benzo[b]xanthen-2-yl)-1H-imidazol-2-yl]pyrrolidin-1-yl}carbonyl)-2-methylpropyl]carbamate] was tested, and the IC50 [1] was ≥ 1 nM, the IC50 [2] was ≥ 100 nM and the IC50 [3] was 1 nM. The IC50 (HCV 2b) was ≥ 100 nM and the IC50 [4] was ≥ 1 nM.
`COC(=O)N[C@H](C(=O)N1CCC[C@H]1c1ncc(-c2ccc3c(ccc4oc5cc(-c6cnc([C@@H]7CCCN7C(=O)[C@@H](NC(=O)OC)C(C)C)[nH]6)ccc5c(=O)c43)c2)[nH]1)C(C)C` [Compound 33, methyl [(1S)-1-({(2S)-2-[5-(9-{2-[(2S)-1-{(2S)-2-[(methoxycarbonyl)amino]-3-methylbutanoyl}pyrrolidin-2-yl]-1H-imidazol-5-yl}-12-oxo-12H-benzo[a]xanthen-3-yl)-1H-imidazol-2-yl]pyrrolidin-1-yl}carbonyl)-2-methylpropyl]carbamate] showed an IC50 [1] of 0.003 nM, an IC50 [2] of 18.4 nM and an IC50 [3] of 0.00333 nM. For the same compound, the IC50 (HCV 2b) was 14.1 nM and the IC50 [4] was ≥ 1 nM.
